Data taken from ChEMBL document CHEMBL3526135, “Induction of xenobiotic receptors, transporters, and drug metabolizing enzymes by oxycodone” (Drug Metab Dispos, 2013).

How the values were obtained:
[1] = target: T1, Nuclear receptor subfamily 1 group I member 3 (Homo sapiens, UniProt Q14994); assay: Transactivation of human CAR1 transfected in human primary hepatocytes assessed as nuclear translocation at 1 mM by confocal laser scanning microscopy; type: cell-based, Hepatocyte; settings: 1000 µM
T1 sequence (Q14994 whole entry): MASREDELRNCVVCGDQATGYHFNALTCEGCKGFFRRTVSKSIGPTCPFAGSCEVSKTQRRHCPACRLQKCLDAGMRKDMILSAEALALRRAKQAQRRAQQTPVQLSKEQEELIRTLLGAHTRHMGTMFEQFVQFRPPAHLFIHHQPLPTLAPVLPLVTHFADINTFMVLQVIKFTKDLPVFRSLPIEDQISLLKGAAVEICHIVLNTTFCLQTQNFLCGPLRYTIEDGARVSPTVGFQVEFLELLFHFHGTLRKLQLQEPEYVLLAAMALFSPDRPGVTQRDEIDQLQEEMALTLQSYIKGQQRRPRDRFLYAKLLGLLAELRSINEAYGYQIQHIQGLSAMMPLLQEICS

[2] = target: T2, Nuclear receptor subfamily 1 group I member 2 (Rattus norvegicus, UniProt Q9R1A7); assay: Transactivation of rat PXR at 0.1 to 30 uM after 24 to 48 hrs by cell-based luciferase reporter gene assay; type: ADME
T2 sequence (Q9R1A7 whole entry): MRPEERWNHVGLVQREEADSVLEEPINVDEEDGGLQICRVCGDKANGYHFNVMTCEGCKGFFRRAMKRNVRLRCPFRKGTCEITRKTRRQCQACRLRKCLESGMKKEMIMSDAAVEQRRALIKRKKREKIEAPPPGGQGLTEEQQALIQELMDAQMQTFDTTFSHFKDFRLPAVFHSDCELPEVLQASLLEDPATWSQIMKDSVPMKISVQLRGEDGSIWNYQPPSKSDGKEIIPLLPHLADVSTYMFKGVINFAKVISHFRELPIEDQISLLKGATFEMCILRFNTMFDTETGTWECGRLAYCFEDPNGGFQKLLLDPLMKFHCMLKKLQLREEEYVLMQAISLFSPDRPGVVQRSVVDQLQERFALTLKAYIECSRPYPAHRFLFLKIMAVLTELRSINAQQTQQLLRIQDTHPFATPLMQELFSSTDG

[3] = target: T3, Aryl hydrocarbon receptor (Homo sapiens, UniProt P35869); assay: Transactivation of human AhR at 0.1 to 30 uM after 24 to 48 hrs by cell-based luciferase reporter gene assay
T3 sequence (P35869 whole entry): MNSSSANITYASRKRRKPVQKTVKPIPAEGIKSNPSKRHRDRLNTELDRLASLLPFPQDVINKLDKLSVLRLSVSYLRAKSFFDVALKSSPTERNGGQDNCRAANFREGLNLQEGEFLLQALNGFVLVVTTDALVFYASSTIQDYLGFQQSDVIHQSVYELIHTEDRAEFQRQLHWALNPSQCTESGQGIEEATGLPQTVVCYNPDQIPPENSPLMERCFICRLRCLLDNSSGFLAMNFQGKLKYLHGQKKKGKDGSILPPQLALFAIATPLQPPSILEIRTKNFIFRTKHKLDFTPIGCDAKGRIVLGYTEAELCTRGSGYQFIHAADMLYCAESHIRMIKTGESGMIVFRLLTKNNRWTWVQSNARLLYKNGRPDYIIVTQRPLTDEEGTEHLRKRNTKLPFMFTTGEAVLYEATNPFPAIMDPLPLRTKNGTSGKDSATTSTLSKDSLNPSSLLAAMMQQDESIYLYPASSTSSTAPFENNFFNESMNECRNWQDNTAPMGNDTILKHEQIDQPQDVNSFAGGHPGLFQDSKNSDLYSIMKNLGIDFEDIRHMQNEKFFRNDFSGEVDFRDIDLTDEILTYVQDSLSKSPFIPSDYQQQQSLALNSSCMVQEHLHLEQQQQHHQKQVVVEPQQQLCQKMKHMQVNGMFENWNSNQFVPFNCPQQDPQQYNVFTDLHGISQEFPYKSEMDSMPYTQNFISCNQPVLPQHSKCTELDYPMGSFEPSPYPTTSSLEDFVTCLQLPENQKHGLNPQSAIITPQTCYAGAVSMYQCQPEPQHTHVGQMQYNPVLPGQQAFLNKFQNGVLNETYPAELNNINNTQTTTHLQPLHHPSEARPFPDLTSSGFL

[4] = target: T1, Nuclear receptor subfamily 1 group I member 3; assay: Transactivation of human CAR1 transfected in human HepG2 cells assessed as CYP2B6 expression at 1 to 30 uM after 24 hrs by luciferase reporter gene assay; type: ADME, cell-based; settings: hepg2, 24 h
[5] = target: T4, Nuclear receptor subfamily 1 group I member 3 (Mus musculus, UniProt O35627); assay: Transactivation of mouse CAR1 transfected in human HepG2 cells assessed as CYP2B6 expression at 1 to 30 uM after 24 hrs by luciferase reporter gene assay; type: ADME, cell-based; settings: hepg2, 24 h
T4 sequence (O35627 whole entry): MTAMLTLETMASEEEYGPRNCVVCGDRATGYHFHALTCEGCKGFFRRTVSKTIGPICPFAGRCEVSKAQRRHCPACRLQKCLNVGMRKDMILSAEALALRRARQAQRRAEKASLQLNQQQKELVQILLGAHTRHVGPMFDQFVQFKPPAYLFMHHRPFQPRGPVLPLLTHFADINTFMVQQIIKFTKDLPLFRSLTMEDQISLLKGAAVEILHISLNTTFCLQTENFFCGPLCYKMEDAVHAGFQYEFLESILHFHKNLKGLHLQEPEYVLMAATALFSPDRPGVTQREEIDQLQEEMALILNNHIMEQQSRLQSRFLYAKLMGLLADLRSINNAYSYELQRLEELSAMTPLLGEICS

[6] = Transactivation of human CAR1 Ala retention mutant transfected in human HepG2 cells assessed as CYP2B6 expression at 1 to 30 uM after 24 hrs by luciferase reporter gene assay; type: ADME, cell-based; settings: hepg2, 24 h
[7] = target: T1, Nuclear receptor subfamily 1 group I member 3; assay: Transactivation of human CAR1 transfected in human primary hepatocytes assessed as nuclear translocation at 30 uM by confocal laser scanning microscopy; type: cell-based, Hepatocyte

| SMILES | Activity [1] | Activity [2] | Activity [3] | Activity [4] | Activity [5] | Activity [6] | Activity [7] |
| --- | --- | --- | --- | --- | --- | --- | --- |
| CCC1(c2ccccc2)C(=O)NC(=O)NC1=O [PHENOBARBITAL] | Active |  |  |  |  |  |  |
| COc1ccc2c3c1O[C@H]1C(=O)CC[C@@]4(O)[C@@H](C2)N(C)CC[C@]314 [OXYCODONE] |  | Not Active | Not Active | Active | Not Active | Not Active | Not Active |
| COc1ccc2c3c1O[C@H]1C(=O)CC[C@@]4(O)[C@@H](C2)NCC[C@]314 |  | Not Active | Not Active | Active | Not Active | Not Active |  |
| CN1CC[C@]23c4c5ccc(O)c4O[C@H]2C(=O)CC[C@@]3(O)[C@H]1C5 [OXYMORPHONE] |  | Not Active | Not Active | Active | Not Active | Not Active |  |
